Reference: patent publication US20100227918A1, “STREPTOMYCES-DERIVED ANTIMICROBIAL COMPOUND AND METHOD OF USING SAME AGAINST ANTIBIOTIC-RESISTANT BACTERIA” (Taro Pharmaceuticals North America, Inc., priority 2006, published 2010)

Experiments:
[1] = test system: methicillin or vancomycin resistant gram-positive bacteria; conditions: prior art; cited from earlier work
[2] = test system: some gram-positive bacteria (such as Staphylococcus and Streptococcus); conditions: prior art, U.S. Pat. No. 3,966,913 and Japanese patents; cited from earlier work
[3] = test system: penicillin-resistant Staphylococcus; conditions: prior art; cited from earlier work
[4] = test system: Vancomycin-Resistant Staphylococcus aureus; experiment: antimicrobial paper disc assay (zone of inhibition); assay type: cell-based; conditions: HPLC-purified material (>99% purity) diluted to 0.1 μg/mL, zone diameters of the classes (L1)
Procedure: (§1) Antimicrobial Assays: 10 μl of the 10-fold concentrated supernatants from each of the six (6) isolated colony was assayed for their antimicrobial activity against the twelve (12) microorganisms as listed above. The antimicrobial assay used in the tertiary screening was similar to that used in the secondary screening. In brief, tested microorganism strains were grown in optimal culture media for growth at the optimal growth temperature for about 16 hours with shaking. Tested plates were prepared as follows. First, base agar layer-media were prepared as per USP. The media were then autoclaved, and cooled to 48° C. Once cooled to 48° C., 20 mL of the cooled media was poured onto a sterile polystyrene petri dish. This base agar layer was further allowed to solidify for 30 minutes (agar was added as a solidifying agent). Second, seed agar layers were prepared as per USP. The media were then autoclaved, and cooled to 48° C. Once cooled to 48° C., 1 mL of tested microorganism strain (already grown for 16 hours as described in the first step above) was added to the seed agar media. The seed agar media was gently swirled to mix. Five (5) mL of the seed agar media was pipetted on top of the base agar layer. Care was taken to avoid air bubbles. This seed agar media was allowed to cool for about 15 minutes at room temperature. Plates were stored at 4° C. until needed.
(§2) Ten (10) μl of each of the concentrated supernatants were pipetted onto a sterile filter paper disc. The sterile filter paper discs were dried in air for approximately 5 minutes. The sterile filter paper discs were carefully applied onto the surface of the plates. Plates holding sterile filter discs were incubated either at 37° C. (for Staphylococcus aureus, MRSA, VRSA, Enterococcus faecilis, VRE, Micrococcus luteus, E. coli, Serratia marcesens and Pseudomonas aeriginosa) or at 30° C. (for Candida albicans) for a time period of 24 hours. Negative controls included liquid culture media. Positive controls included known antimicrobial compounds such as vancomycin (against gram-positive bacteria), tetracycline (against gram-positive/gram-negative bacteria), and amphotericin B (against yeast/fungi).
(§3) In general, a zone of inhibition visualized as having a diameter of about 7-10 mm is classified as “+”; a diameter of about 11-14 mm is “++”; a diameter of about 15-18 mm is “+++”; a diameter of about 19-22 mm is “++++”, and a diameter of greater than 23 mm is classified as “+++++”.
(§4) The HPLC-purified material was diluted with sterile distilled water to a concentration of 0.1 μg/mL. The diluted HPLC-purified material was assayed for antimicrobial activity using the antimicrobial assay as described above. The diluted HPLC-purified material was assayed for its antimicrobial activity against ten (10) microorganisms; namely, 1) Staphylococcus aureus; 2) methicillin-resistant Staphylococcus aureus; 3) vancomycin-resistant Staphylococcus aureus; 4) Enterococcus faecilis; 5) vancomycin-resistant Enterococcus faecilis; 6) Mycobacterium smegmatis; 7) E. coli; 8) Pseudomonas aeriginosa; 9) Serratia marcesens; and 10) Candida albicans.

[5] = test system: Enterococcus faecilis; experiment: as above; assay type: cell-based; conditions: HPLC-purified material (>99% purity) diluted to 0.1 μg/mL, known antibiotic controls, zone diameters of the classes (L1)
Procedure: as §1, §2, §3, §4

[6] = test system: Vancomycin-Resistant Enterococcus faecilis; experiment: as above; assay type: cell-based; conditions: HPLC-purified material (>99% purity) diluted to 0.1 μg/mL, zone diameters of the classes (L1)
Procedure: as §1, §2, §3, §4

[7] = test system: Mycobacterium smegmatis; experiment: as above; assay type: cell-based; conditions: HPLC-purified material (>99% purity) diluted to 0.1 μg/mL, known antibiotic controls, zone diameters of the classes (L1)
Procedure: as §1, §2, §3, §4

[8] = test system: Serratia marcesens; experiment: as above; assay type: cell-based; conditions: known antibiotic controls, zone diameters of the classes (L1)
Procedure: as §1, §2, §3, §4

[9] = test system: Staphylococcus aureus; experiment: as above; assay type: cell-based; conditions: HPLC-purified material (>99% purity) diluted to 0.1 μg/mL, known antibiotic controls, zone diameters of the classes (L1)
Procedure: (§6) Ten (10) μl of each of the concentrated supernatants were pipetted onto a sterile filter paper disc. The sterile filter paper discs were dried in air for approximately 5 minutes. The sterile filter paper discs were carefully applied onto the surface of the plates. Plates holding sterile filter discs were incubated either at 37° C. […]

[10] = test system: Methicillin-Resistant Staphylococcus aureus; experiment: as above; assay type: cell-based; conditions: HPLC-purified material (>99% purity) diluted to 0.1 μg/mL, known antibiotic controls, zone diameters of the classes (L1)
Procedure: as §6

[11] = test system: Mycobacteria smegmatis; conditions: Journal of Antibiotics 29(7), 756-8; cited from earlier work
[12] = test system: Candida albicans; experiment: antimicrobial paper disc assay (zone of inhibition); assay type: cell-based; conditions: known antibiotic controls, zone diameters of the classes (L1)
Procedure: as §1, with “The” for “Antimicrobial Assays: 10 μl of the 10-fold concentrated supernatants from each of the six (6) isolated colony was assayed for their antimicrobial activity against the twelve (12) microorganisms as listed above. The”, “was performed as described” for “used”, “USP (See, Molecular Cloning, A Laboratory Manual).” for “the tertiary screening was similar to that used in the secondary screening.”
as §2, with “supernatants (described above)” for “supernatants”, “plates (prepared as described above).” for “plates.”, “(for” for “(for Staphylococcus aureus, MRSA, VRSA, Enterococcus faecilis, VRE,”, “coli,” for “coli, Serratia marcesens”, “timer” for “time”
as §1
(§5) Ten (10) μl of each of the concentrated supernatants were pipetted onto a sterile filter paper disc. The sterile filter paper discs were dried in air for approximately 5 minutes. The sterile filter paper discs were carefully applied onto the surface of the plates. Plates holding sterile filter discs were incubated either at 37° C. (for Staphylococcus aureus, MRSA, VRSA, Enterococcus faecilis, VRE, Micrococcus luteus, E. coli, Serratia marcesens and Pseudomonas aeriginosa) or at 30° C. (for Candida albicans) for a time period of 24 hours. Negative controls included liquid culture media.

[13] = test system: Pseudomonas aeriginosa; experiment: as above; assay type: cell-based; conditions: known antibiotic controls, zone diameters of the classes (L1)
Procedure: as §1, with “The” for “Antimicrobial Assays: 10 μl of the 10-fold concentrated supernatants from each of the six (6) isolated colony was assayed for their antimicrobial activity against the twelve (12) microorganisms as listed above. The”, “was performed as described” for “used”, “USP (See, Molecular Cloning, A Laboratory Manual).” for “the tertiary screening was similar to that used in the secondary screening.”
as §2, with “supernatants (described above)” for “supernatants”, “plates (prepared as described above).” for “plates.”, “(for” for “(for Staphylococcus aureus, MRSA, VRSA, Enterococcus faecilis, VRE,”, “coli,” for “coli, Serratia marcesens”, “timer” for “time”
as §1, §5

[14] = test system: E. coli; experiment: as above; assay type: cell-based; conditions: known antibiotic controls, zone diameters of the classes (L1)
Procedure: as §1, with “The” for “Antimicrobial Assays: 10 μl of the 10-fold concentrated supernatants from each of the six (6) isolated colony was assayed for their antimicrobial activity against the twelve (12) microorganisms as listed above. The”, “was performed as described” for “used”, “USP (See, Molecular Cloning, A Laboratory Manual).” for “the tertiary screening was similar to that used in the secondary screening.”
as §2, with “supernatants (described above)” for “supernatants”, “plates (prepared as described above).” for “plates.”, “(for” for “(for Staphylococcus aureus, MRSA, VRSA, Enterococcus faecilis, VRE,”, “coli,” for “coli, Serratia marcesens”, “timer” for “time”
as §1, §5

[15] = HPLC-purified material (>99% purity) diluted to 0.1 μg/mL, paper disc assay
[16] = tertiary screening, 10 μl of 10-fold concentrated supernatant on paper disc, 37° C., 24 hours

## CC1OC2CC(=O)OC2C2=C1C(=O)c1c(ccc(C3CC(N(C)C)C(O)C(C)O3)c1O)C2=O (stereo not shown) [Lactoquinomycin A]
[1]
  antimicrobial activity against methicillin or vancomycin resistant gram-positive bacteria: no antimicrobial activity
[2]
  antimicrobial activity against some gram-positive bacteria (such as Staphylococcus and Streptococcus): exert an antimicrobial activity
[3]
  antimicrobial activity against certain penicillin-resistant Staphylococcus: exert an antimicrobial activity

## CC1OC2CC(=O)OC2C2=C1C(=O)c1c(ccc(C3CC(N(C)C)C(O)C(C)O3)c1O)C2=O [Purified Lactoquinomycin, 2H-Furo[3,2-b]naphtho[2,3-d]pyran-2,6,11-trione,3,3a,5,11b-tetrahydro-7-hydroxy-5-methyl-8-[2,3,6-trideoxy-3-(dimethylamino)-β-D-arabino-hexopyranosyl]-,(3aR,5R,11bR)]
[4]
  Antimicrobial Activity (zone of inhibition), Vancomycin-Resistant Staphylococcus aureus: +++++
[5]
  Antimicrobial Activity (zone of inhibition), Enterococcus faecilis: +++
[6]
  Antimicrobial Activity (zone of inhibition), Vancomycin-Resistant Enterococcus faecilis: +++
[7]
  Antimicrobial Activity (zone of inhibition), Mycobacterium smegmatis: +++++
[8]; [15]
  Antimicrobial Activity (zone of inhibition), Serratia marcesens: −
[9]
  Antimicrobial Activity (zone of inhibition), Staphylococcus aureus: +++++
[10]
  Antimicrobial Activity (zone of inhibition), Methicillin-Resistant Staphylococcus aureus: +++++
[11]
  antimicrobial activity against mycobacteria (i.e. Mycobacteria smegmatis): no antimicrobial activity
[12]; [15]
  Antimicrobial Activity (zone of inhibition), Candida albicans: −
[13]; [15]
  Antimicrobial Activity (zone of inhibition), Pseudomonas aeriginosa: −
[14]; [15]
  Antimicrobial Activity (zone of inhibition), E. coli: −

## C[C@@H]1[C@H](O)[C@@H](C)/C=C/C=C/C=C/C=C/C=C/C=C/C=C/[C@H](O[C@@H]2O[C@H](C)[C@@H](O)[C@H](N)[C@@H]2O)C[C@@H]2O[C@](O)(C[C@@H](O)C[C@@H](O)[C@H](O)CC[C@@H](O)C[C@@H](O)CC(=O)O[C@H]1C)C[C@H](O)[C@H]2C(=O)O [amphotericin B]
[12]; [15]
  Antimicrobial Activity (zone of inhibition), Candida albicans: amphotericin B (+++++)
[12]; tertiary screening, 10 μl of 10-fold concentrated supernatant on paper disc, 30° C., 24 hours
  Antimicrobial Activity (zone of inhibition), Candida albicans: amphotericin B (+++++)

## CN(C)[C@@H]1C(O)=C(C(N)=O)C(=O)[C@@]2(O)C(O)=C3C(=O)c4c(O)cccc4[C@@](C)(O)[C@H]3C[C@@H]12 [tetracycline]
[14]; [15]
  Antimicrobial Activity (zone of inhibition), E. coli: tetracycline (+++++)
[14]; [16]
  Antimicrobial Activity (zone of inhibition), E. coli: tetracycline (+++++)

## gentamicin
[8]; [15]
  Antimicrobial Activity (zone of inhibition), Serratia marcesens: gentamicin (+++++)
[8]; [16]
  Antimicrobial Activity (zone of inhibition), Serratia marcesens: gentamicin (+++++)
[13]; [15]
  Antimicrobial Activity (zone of inhibition), Pseudomonas aeriginosa: gentamicin (+++++)
[13]; [16]
  Antimicrobial Activity (zone of inhibition), Pseudomonas aeriginosa: gentamicin (+++++)
